From US20230338294A1, “NOVEL PHARMACEUTICAL FORMULATION FOR C-MET INHIBITOR” (APOLLOMICS INC., priority 2020, published 2023)

How the values were obtained:
[1] = Two stage 'gastric transfer' non-sink biorelevant dissolution test; assay type: physicochemical; conditions: for Cmax FaSSIF: intestinal stage FaSSIF pH 6.8; for AUC35-210 FaSSIF: 35-210 minutes in FaSSIF; for C210: concentration at 210 minutes
Description: Biorelevant drug dissolution performance for bulk API and subsequent ASDs was evaluated by Patheon's two stage ‘gastric transfer’ non-sink dissolution test, which simulates pH and bile salt concentrations for both gastric and intestinal exposure in a simple to perform assay. Pre-weighed powder is briefly suspended in media (e.g. by 10 sec vortex mixing with 4.0 mL media) and transferred to a pre-heated (37° C.) volume of 50 mL of 0.1N HCl (aq) pH ˜1.0, without pepsin or bile salts), in a USP Type 2 mini-vessel (100 mL total vessel volume) while stirring (paddles) at 100 rpm. After 30 minutes of gastric pH exposure, an equal volume of PBS buffered, 2× concentrated fasted-state simulated intestinal fluid (FaSSIF) is added to the HCl, resulting in a final pH of 6.8 in FaSSIF (100 mM PBS containing 2.24 mg/mL FaSSIF/FeSSIF/FaSSGF powder (Biorelevant Inc.) in a total volume of 100 mL. Aliquots (1.0 mL) of dissolution media are taken at the following time points: 10, 25, 35, 50, 70, 120 and 210 minutes. The first two aliquots are taken from the simulated gastric media, with the remaining five aliquots from the intestinal media. Aliquots are spun-down (13000 rpm) to pellet out undissolved solids, and the supernatant sampled and further diluted in an appropriate diluent to determine API total drug concentration (e.g. free and colloidal/polymer-bound drug in solution) utilizing a suitable HPLC method. The volume of FaSSIF added is adjusted to account for the sampling volume removed prior to gastric transfer (typically 4×1.0 mL). Initial API concentration in dissolution samples was determined utilizing a HPLC method.
The dissolution performance of the feasibility SDIs and bulk APL-101 was tested in a biorelevant non-sink dissolution experiment as described in EXAMPLE 1. The design of this experiment is to rank order and select lead formulations. […] 20% and 33% active HPMCAS-H and 20% active HPMC-E3LV and PVP-VA based formulations were nominated as the lead formulations.

[2] = Glass transition temperature (Tg) by modulated DSC; assay type: physicochemical; conditions: MDSC
Description: DSC was performed using a TA Instruments Discovery DSC2500 differential scanning calorimeter equipped with a TA instruments Refrigerated Cooling System 90 operating in either modulated or ramp mode. DSC was used to measure thermodynamic events and characteristics of APL-101 bulk API and subsequent Spray Dried Intermediates (SDIs). Events observed include the glass transition temperature (Tg) defined as the temperature at which amorphous materials transition from a low mobility glassy state to a high mobility rubbery state, cold crystallization (Tc), defined as a crystallization event at a temperature lower than the melt temperature, and melting temperature (Tm). SDI samples were placed in non-hermetic aluminum pans and heated at a constant rate of 2.0° C./min over a 25-200° C. temperature range. The system was purged by nitrogen flow at 50 mL/min to ensure inert atmosphere through the course of measurement. APL-101 was initially analyzed by standard DSC with a heating rate of 10° C./min ramping up to 221° C. […] The resulting amorphous API was analyzed by modulated DSC to determine the glass transition temperature. […]
Thermal properties of bulk APL-101 were measured by DSC. Three API lots were tested, and it was determined that there were two API forms, Forms A and B, both of which are thought to be hydrates. […]

Cmax FaSSIF ([1]; Table 3, feasibility SDIs) [μgA/mL]	AUC35-210 FaSSIF ([1]; Table 3) [min*μgA/mL]	C210 ([1]; Table 3) [μgA/mL]	Cmax FaSSIF ([1]; Table 6, prototype SDI) [μgA/mL]	AUC35-210 FaSSIF ([1]; Table 6) [min*μgA/mL]	C210 ([1]; Table 6) [μgA/mL]	Tg [2] [°C]	Tm/Tg ratio ([2]; indicative of moderate physical stability) [K/K]	dissolution performance ([1]; gastric and intestinal media, in words)	SMILES
8.9	1400	7.8	8.9	1400	7.8	89	1.37		Cn1cc2cc(C(F)(F)c3nnc4ccc(-c5cnn(C6CC6)c5)nn34)c(F)cc2n1 [APL-101 Form B, 6-(1-cyclopropylpyrazol-4-yl)-3-[difluoro-(6-fluoro-2-methylindazol-5-yl)methyl]-[1,2,4]triazolo[4,3-b]pyridazine]
								very low dissolution performance	Cn1cc2cc(C(F)(F)c3nnc4ccc(-c5cnn(C6CC6)c5)nn34)c(F)cc2n1 [APL-101, 6-(1-cyclopropylpyrazol-4-yl)-3-[difluoro-(6-fluoro-2-methylindazol-5-yl)methyl]-[1,2,4]triazolo[4,3-b]pyridazine]
